Our source for the IC50 values is patent US9586951B2 (FUJIFILM Corporation, priority 2013, dated 2017).

T1 sequence (Q13315 whole entry): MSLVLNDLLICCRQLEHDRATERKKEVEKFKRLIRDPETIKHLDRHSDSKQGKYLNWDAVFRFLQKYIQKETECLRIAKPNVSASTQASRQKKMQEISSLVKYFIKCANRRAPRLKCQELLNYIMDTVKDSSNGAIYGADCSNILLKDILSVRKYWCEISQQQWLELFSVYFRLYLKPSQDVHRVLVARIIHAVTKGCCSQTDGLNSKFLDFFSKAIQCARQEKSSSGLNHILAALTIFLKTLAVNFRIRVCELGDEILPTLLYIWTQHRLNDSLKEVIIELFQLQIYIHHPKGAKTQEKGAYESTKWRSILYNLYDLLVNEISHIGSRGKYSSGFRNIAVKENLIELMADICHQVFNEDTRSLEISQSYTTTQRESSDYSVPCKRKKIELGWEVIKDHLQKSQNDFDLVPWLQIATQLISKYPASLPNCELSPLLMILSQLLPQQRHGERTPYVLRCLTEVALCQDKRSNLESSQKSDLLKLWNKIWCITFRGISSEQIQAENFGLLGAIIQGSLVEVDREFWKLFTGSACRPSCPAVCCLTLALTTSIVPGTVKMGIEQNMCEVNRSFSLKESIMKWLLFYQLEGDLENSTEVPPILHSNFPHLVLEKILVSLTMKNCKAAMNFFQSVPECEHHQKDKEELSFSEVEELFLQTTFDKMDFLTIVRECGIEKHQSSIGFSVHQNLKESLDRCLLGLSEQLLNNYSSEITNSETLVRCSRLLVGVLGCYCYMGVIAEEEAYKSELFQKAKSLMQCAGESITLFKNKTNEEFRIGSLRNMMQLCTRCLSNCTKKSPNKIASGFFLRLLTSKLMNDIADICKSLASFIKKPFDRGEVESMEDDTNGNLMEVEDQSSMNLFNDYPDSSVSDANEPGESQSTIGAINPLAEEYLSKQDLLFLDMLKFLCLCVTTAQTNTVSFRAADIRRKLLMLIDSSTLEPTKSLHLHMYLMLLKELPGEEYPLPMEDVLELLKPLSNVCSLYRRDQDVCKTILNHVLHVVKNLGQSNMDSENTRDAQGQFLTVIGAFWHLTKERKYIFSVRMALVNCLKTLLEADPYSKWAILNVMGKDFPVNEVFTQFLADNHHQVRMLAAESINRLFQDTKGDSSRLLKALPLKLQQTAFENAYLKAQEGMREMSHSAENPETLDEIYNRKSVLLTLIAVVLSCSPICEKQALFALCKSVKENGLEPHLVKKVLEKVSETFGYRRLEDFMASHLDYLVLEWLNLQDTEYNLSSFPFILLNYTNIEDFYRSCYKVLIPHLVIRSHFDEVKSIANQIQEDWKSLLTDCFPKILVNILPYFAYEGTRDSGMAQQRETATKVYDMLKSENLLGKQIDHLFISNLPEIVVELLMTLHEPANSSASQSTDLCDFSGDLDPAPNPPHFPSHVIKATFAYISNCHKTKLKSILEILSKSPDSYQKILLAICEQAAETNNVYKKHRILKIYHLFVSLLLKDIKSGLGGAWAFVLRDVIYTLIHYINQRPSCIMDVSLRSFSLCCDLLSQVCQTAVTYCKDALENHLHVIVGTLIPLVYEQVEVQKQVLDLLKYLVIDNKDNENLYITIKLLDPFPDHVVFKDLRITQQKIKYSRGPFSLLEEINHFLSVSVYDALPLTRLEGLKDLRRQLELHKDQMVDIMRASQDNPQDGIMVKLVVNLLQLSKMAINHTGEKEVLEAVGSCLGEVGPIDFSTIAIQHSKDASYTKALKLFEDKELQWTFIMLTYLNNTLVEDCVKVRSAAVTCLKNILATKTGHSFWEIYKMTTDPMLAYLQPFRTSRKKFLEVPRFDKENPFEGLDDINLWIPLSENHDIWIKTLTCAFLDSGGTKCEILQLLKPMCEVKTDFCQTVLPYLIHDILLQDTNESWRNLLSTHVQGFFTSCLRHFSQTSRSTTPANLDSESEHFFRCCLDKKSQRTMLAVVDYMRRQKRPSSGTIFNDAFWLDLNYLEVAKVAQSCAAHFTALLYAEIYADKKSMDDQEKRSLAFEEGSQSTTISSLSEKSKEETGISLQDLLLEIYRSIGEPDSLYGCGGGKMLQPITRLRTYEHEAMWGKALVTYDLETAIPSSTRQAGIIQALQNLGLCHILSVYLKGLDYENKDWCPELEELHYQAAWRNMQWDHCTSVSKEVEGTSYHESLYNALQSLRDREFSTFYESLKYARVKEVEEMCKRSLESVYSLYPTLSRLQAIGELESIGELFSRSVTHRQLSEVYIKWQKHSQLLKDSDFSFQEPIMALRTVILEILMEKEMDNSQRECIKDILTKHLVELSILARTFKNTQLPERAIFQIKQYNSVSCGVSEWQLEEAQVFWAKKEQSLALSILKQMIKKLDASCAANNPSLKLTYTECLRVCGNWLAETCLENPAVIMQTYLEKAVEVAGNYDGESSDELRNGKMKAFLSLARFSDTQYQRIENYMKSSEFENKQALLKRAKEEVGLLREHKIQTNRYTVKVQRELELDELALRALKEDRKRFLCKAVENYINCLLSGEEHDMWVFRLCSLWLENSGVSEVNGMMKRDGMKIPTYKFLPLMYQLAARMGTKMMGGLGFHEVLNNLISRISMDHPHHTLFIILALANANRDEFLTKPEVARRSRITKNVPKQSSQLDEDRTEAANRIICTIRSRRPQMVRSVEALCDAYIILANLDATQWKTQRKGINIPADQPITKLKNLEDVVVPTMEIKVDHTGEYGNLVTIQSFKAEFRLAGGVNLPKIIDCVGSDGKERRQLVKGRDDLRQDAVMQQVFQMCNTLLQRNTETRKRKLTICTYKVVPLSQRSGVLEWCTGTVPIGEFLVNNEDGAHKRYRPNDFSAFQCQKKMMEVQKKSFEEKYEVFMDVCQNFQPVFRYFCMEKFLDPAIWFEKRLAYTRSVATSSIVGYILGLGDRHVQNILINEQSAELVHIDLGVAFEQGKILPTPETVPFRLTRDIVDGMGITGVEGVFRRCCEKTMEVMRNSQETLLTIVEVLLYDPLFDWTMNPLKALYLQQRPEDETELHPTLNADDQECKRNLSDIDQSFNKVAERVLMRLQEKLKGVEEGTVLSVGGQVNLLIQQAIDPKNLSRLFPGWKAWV

The assay concerns the target T1, ATM (Homo sapiens, UniProt Q13315).
T1 construct: detecting phosphorylation of Chk2 in a human non-small cell lung cancer cell line NCI-H460 (ATCC company); host or cells: NCI-H460 human non-small cell lung cancer cells
The assay is described as follows: ATM inhibition test (phosphorylation of Chk2 generated by ionizing radiation, AlphaScreen SureFire). It counts as cell-based. Conditions: phosphorylated Chk2 in NCI-H460 cells, ionizing radiation 8Gy, 1 hour after test compound treatment; read-out: ATM inhibitory activity. In outline: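 In NCI-H460 cells, radiation-triggered Chk2 phosphorylation (8Gy, 1 h) is detected by AlphaScreen SureFire following 1 h compound exposure.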
In general terms: Alpha assays give light when donor and acceptor beads are brought close together.
Regarding `COCCN(CCOC)C[C@@H](COC)Nc1ccc2c(c1)Sc1cccc(-c3cc(N4CCOCC4)cc(=O)[nH]3)c1S2` [Example 1-46-3, (S)-6-(7-((1-(bis(2-methoxyethyl)amino)-3-methoxypropan-2-yl)amino)thianthren-1-yl)-4-morpholinopyridin-2(1H)-one], the IC50 lay in the range of 100 to 500 nM.
With `CC(Nc1ccc2c(c1)Cc1cccc(-c3cc(N4CCOCC4)cc(=O)[nH]3)c1O2)c1cccnc1` (single isomer, unassigned) [Example 2-36-1, 4-morpholino-6-(7-((1-(pyridin-3-yl)ethyl)amino)-9H-xanthen-4-yl)pyridin-2(1H)-one] the figure was 500 to 2000 nM.
Then `CC(C)(CN1CCOCC1)Nc1ccc2c(c1)Sc1cccc(-c3cc(N4CCOCC4)cc(=O)[nH]3)c1S2` [Example 1-46-2, 6-(7-((2-methyl-1-morpholinopropan-2-yl)amino)thianthren-1-yl)-4-morpholinopyridin-2(1H)-one], with 100 to 500 nM; and `O=c1cc(N2CCOCC2)cc(-c2cccc3c2Oc2ccc(NCc4ccccn4)cc2S3)[nH]1` [Example 4-4-24, 4-Morpholino-6-(8-((pyridin-2-ylmethyl)amino)phenoxathiin-4-yl) pyridin-2(1H)-one], with 100 to 500 nM; and `CC(Nc1ccc2c(c1)Cc1cccc(-c3cc(N4CCOCC4)cc(=O)[nH]3)c1O2)c1ccncn1` (stereo not shown) [Example 2-14-50, 4-Morpholino-6-(7-((1-(pyrimidin-4-yl)ethyl)amino)-9H-xanthen-4-yl) pyridin-2(1H)-one], with 500 to 2000 nM.
In the case of `O=c1cc(N2CCOCC2)cc(-c2nccc3c2Oc2ccc(NCc4cncc(Cl)c4)cc2C3)[nH]1` [Example 2-41-9, 6-(7-(((5-Chloropyridin-3-yl)methyl)amino)-5H-chromeno [2,3-c]pyridin-1-yl)-4-morpholino pyridin-2(1H)-one], the IC50 was 100 to 500 nM.
With `O=c1cc(N2CCOCC2)cc(-c2cccc3c2Sc2ccc(NCc4cnccn4)cc2S3)[nH]1` [Example 1-12-42, 4-Morpholino-6-(7-((pyrazin-2-ylmethyl)amino)thianthren-1-yl) pyridin-2(1H)-one] the figure was 100 to 500 nM.
With `O=c1cc(N2CCOCC2)cc(-c2cccc3c2Oc2ccc(NC4CCN(Cc5ncccn5)CC4)cc2C3)[nH]1` [Example 2-28-3, 4-Morpholino-6-(7-((1-(pyrimidin-2-ylmethyl)piperidin-4-yl)amino)-9H-xanthen-4-yl)pyridin-2 (1H)-one] the figure was 500 to 2000 nM; with `Cc1cccc(CCN2CCC(Nc3ccc4c(c3)Cc3cccc(-c5cc(N6CCOCC6)cc(=O)[nH]5)c3O4)CC2)c1` [Example 2-30-8, 6-(7-((1-(3-Methylphenethyl)piperidin-4-yl)amino)-9H-xanthen-4-yl)-4-morpholino pyridin-2 (1H)-one], 500 to 2000 nM.
Then `N#CCN1CCC(Nc2ccc3c(c2)Cc2cccc(-c4cc(N5CCOCC5)cc(=O)[nH]4)c2O3)CC1` [Example 2-30-1, 2-(4-((5-(4-morpholino-6-oxo-1,6-dihydropyridin-2-yl)-9H-xanthen-2-yl)amino)piperidin-1-yl)acetonitrile], with 100 to 500 nM.
Consider `COc1cncc(C(C)Nc2ccc3c(c2)Cc2cccc(-c4nc(N5CCOCC5)cc(=O)[nH]4)c2O3)c1` (stereo not shown) [Example 2-52-4, 2-(7-((1-(5-Methoxypyridin-3-yl)ethyl)amino)-9H-xanthen-4-yl)-6-morpholinopyrimidine-4(3H)-one], for which the IC50 lay in the range of 100 to 500 nM.
With `O=c1cc(N2CCOCC2)cc(-c2cccc3c2Sc2ccc(NC4CCN(C5CCOC5)C4)cc2S3)[nH]1` (stereo not shown) [Example 1-24-14, 4-Morpholino-6-(7-((1-(tetrahydrofuran-3-yl)pyrrolidin-3-yl)amino)thianthren-1-yl)pyridin-2 (1H)-one] the figure was 100 to 500 nM; with `COc1ccncc1CNc1ccc2c(c1)Sc1cccc(-c3cc(N4CCOCC4)cc(=O)[nH]3)c1O2` [Example 4-8-10, 6-(8-(((4-Methoxypyridin-3-yl)methyl)amino)phenoxathiin-4-yl)-4-morpholino pyridin-2(1H)-one], 100 to 500 nM.
